Common to all, as to type: cell-based
Assay [1] relates to Myostatin. Description: Reporter gene assay for myostatin signaling in HepG2 cell line, Evaluation Procedure (1), myostatin inhibition. The conditions noted are these: Method A; GDF-11 IC50 versus Myostatin IC50. In short, it runs like this:
(§1)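 HepG2 cells transfected with pGL3(CAGA)12-luciferase reporter, serum-starved in 0.1% BSA medium, then stimulated with myostatin or GDF-11 plus 4-fold peptide dilutions (0.006–100 nmol/L for myostatin, 0.12–2000 nmol/L for GDF-11) for 20–24 h at 37 °C. Luminescence read with One-Glo; IC50 calculated.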

Assay [2] deals with T1, Myostatin (Homo sapiens, UniProt O14793).
T1 construct: active myostatin (also called mature myostatin) is a homodimer consisting of two C-terminal growth factor domains; purchased R&D systems 788-G8/CF
T1 sequence (O14793 267-375): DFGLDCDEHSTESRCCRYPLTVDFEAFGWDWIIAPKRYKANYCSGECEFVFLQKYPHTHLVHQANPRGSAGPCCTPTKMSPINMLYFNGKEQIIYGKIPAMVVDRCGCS
The description is as above. The conditions noted are these: Method A: Myostatin 10 ng/mL; read-out: IC50 (Luciferase) Myostatin HepG2. A digest of the protocol:
as §1

The next assay addresses T2, GDF-11 (Homo sapiens, UniProt O95390).
T2 construct: purchased R&D systems 1958-GD-G8/CF
T2 sequence (O95390 299-407): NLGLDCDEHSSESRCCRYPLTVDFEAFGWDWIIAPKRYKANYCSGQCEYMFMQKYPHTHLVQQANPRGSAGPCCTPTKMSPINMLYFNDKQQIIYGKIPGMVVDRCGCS
The assay can be described thus: Reporter gene assay for myostatin signaling in HepG2 cell line, Evaluation Procedure (1), GDF-11 inhibition. The conditions noted are these: Method A: GDF-11 10 ng/mL; read-out: IC50 (Luciferase) GDF-11 HepG2. A digest of the protocol:
as §1
(In general: A reporter such as luciferase makes a cellular process visible.)

Starred links: 1 amine or outer side, 2 acyl side, 3 side chain; linkers in the order of their positions; H or OH if unused. Positions of bridges follow the written chain, without caps; N, C: chain ends. Non-standard residues stand in square brackets, D forms with d. Residues, ends and D or L forms follow the SMILES beside them. Phe(3-OCH2COOH) = N[C@@H](Cc1cccc(OCC(=O)O)c1)C(=O)O; Phe(4-COOH) = N[C@@H](Cc1ccc(C(=O)O)cc1)C(=O)O; Trp(7-aza) = N[C@@H](Cc1c[nH]c2ncccc12)C(=O)O; Gly(N(CH2)3COOH) = O=C(O)CCCNCC(=O)O; X1 = CCCCCCC[C@H](N[*:1])C(=O)[*:2]; NMeF = CN[C@@H](Cc1ccccc1)C(=O)O; Ahp(2) = CCCCC[C@H](N)C(=O)O; NMeA = CN[C@@H](C)C(=O)O; Sar = CNCC(=O)O

As for `CCCCCCC[C@@H]1NC(=O)[C@H](Cc2ccccc2)N(C)C(=O)[C@H](CCCNC(=N)N)NC(=O)[C@H](Cc2ccc(C(=O)O)cc2)NC(=O)[C@H](Cc2ccc(O)cc2)NC(=O)CN(C)C(=O)[C@H]([C@@H](C)CC)NC(=O)[C@H](Cc2ccccc2)N(C)C(=O)[C@H](Cc2ccc(O)cc2)NC(=O)[C@H](Cc2c[nH]c3ccccc23)NC(=O)[C@H](C)NC(=O)[C@H](C)NC(=O)CSC[C@H](C(=O)O)NC(=O)[C@H](Cc2ccccc2)N(C)C(=O)[C@H](C)N(C)C1=O` [Myostatin_99_v193] ({CH2CO}-AAWY[NMeF]I[Sar]Y[Phe(4-COOH)]R[NMeF][X1][NMeA][NMeF][dC]-OH; thioether N-15), in the assay on Myostatin [1], the Selectivity came out at 57. For the same compound, the IC50 at Myostatin [2] is 1 nM; on GDF-11 it was 57 nM.
As for `CC[C@H](C)[C@@H]1NC(=O)[C@H](Cc2ccccc2)N(C)C(=O)[C@H](Cc2ccc(O)cc2)NC(=O)[C@H](Cc2c[nH]c3ccccc23)NC(=O)[C@H](CO)NC(=O)CN(CCCC(=O)O)C(=O)CSC[C@H](C(=O)O)NC(=O)[C@H](Cc2ccccc2)N(C)C(=O)[C@H](C)N(C)C(=O)[C@H](CC(C)C)NC(=O)[C@H](Cc2ccccc2)N(C)C(=O)[C@H](CCCNC(=N)N)NC(=O)[C@H](Cc2ccc(C(=O)O)cc2)NC(=O)[C@H](Cc2ccc(O)cc2)NC(=O)[C@H](C)N(C)C1=O` [Myostatin_99_v188] ({CH2CO}-[Gly(N(CH2)3COOH)]SWY[NMeF]I[NMeA]Y[Phe(4-COOH)]R[NMeF]L[NMeA][NMeF][dC]-OH; thioether N-15), the Selectivity in the assay on Myostatin [1] was 16. The IC50 on Myostatin [2] turned out to be 55.4 nM; at GDF-11, 911 nM.
As for `CCCCCCC[C@@H]1NC(=O)[C@H](Cc2ccccc2)N(C)C(=O)[C@H](CCCNC(=N)N)NC(=O)[C@H](Cc2ccc(C(=O)O)cc2)NC(=O)[C@H](Cc2cccc(OCC(=O)O)c2)NC(=O)[C@H](C)N(C)C(=O)[C@H]([C@@H](C)CC)NC(=O)[C@H](Cc2ccccc2)N(C)C(=O)[C@H](Cc2ccc(O)cc2)NC(=O)[C@H](Cc2c[nH]c3ncccc23)NC(=O)[C@H](C)NC(=O)CN(CCCC(=O)O)C(=O)CSC[C@H](C(=O)O)NC(=O)[C@H](Cc2ccccc2)N(C)C(=O)[C@H](C)N(C)C1=O` [Myostatin_99_v148] ({CH2CO}-[Gly(N(CH2)3COOH)]A[Trp(7-aza)]Y[NMeF]I[NMeA][Phe(3-OCH2COOH)][Phe(4-COOH)]R[NMeF][X1][NMeA][NMeF][dC]-OH; thioether N-15), the Selectivity in the assay on Myostatin [1] worked out at 293. The IC50 stood at 1.5 nM on Myostatin [2] and 439 nM at GDF-11.
`CCCCC[C@@H]1NC(=O)[C@H](Cc2ccccc2)N(C)C(=O)[C@H](CCCNC(=N)N)NC(=O)[C@H](Cc2ccc(C(=O)O)cc2)NC(=O)[C@H](Cc2cccc(OCC(=O)O)c2)NC(=O)CN(C)C(=O)[C@H]([C@@H](C)CC)NC(=O)[C@H](Cc2ccccc2)N(C)C(=O)[C@H](Cc2ccc(O)cc2)NC(=O)[C@H](Cc2c[nH]c3ccccc23)NC(=O)[C@H](C)NC(=O)[C@H](C)NC(=O)CSC[C@H](C(=O)O)NC(=O)[C@H](Cc2ccccc2)N(C)C(=O)[C@H](C)N(C)C1=O` [Myostatin_99_v201] ({CH2CO}-AAWY[NMeF]I[Sar][Phe(3-OCH2COOH)][Phe(4-COOH)]R[NMeF][Ahp(2)][NMeA][NMeF][dC]-OH; thioether N-15) yielded a Selectivity in the assay on Myostatin [1] of 262. Also, the IC50 on Myostatin [2] came to 8.6 nM; on GDF-11, 2260 nM.

A word on the IC50: it is the concentration that gives 50% inhibition.

The values above are taken from patent publication EP4786487A1, “PEPTIDE” (Peptidream Inc, priority 2023, dated 2025).
